Usually Solubility stands for the dissolved amount per volume that the medium holds.

This is an account of results in patent publication US7381729B2, “4-(4-trans-hydroxycyclohexyl)amino-2-phenyl-7H-pyrrolo [2,3D] pyrimidine hydrogen mesylate, its polymorphic forms, and methods for making same” (Solvay Pharmaceuticals B.V., priority 2003, dated 2008).

In brackets after ≈: the same amount, converted by molar mass.

Series [1] in a line: Solubility in gastrointestinal fluids. It is filed as physicochemical.
A short description of series [2]: Solubility by shake flask method (OECD guideline No. 105) in purified water. The note with it: 25° C.
Protocol: Solubility measurements were carried out with the shake flask method according to the OECD guideline at 25° C.
Series [3] in a line: Relative stability of the polymorphic forms. The format is physicochemical. As to conditions: form α versus form β.
Series [4] can be described thus: Stability at ambient conditions. It is filed as physicochemical.

On to `O[C@H]1CC[C@H](Nc2nc(-c3ccccc3)nc3[nH]ccc23)CC1` [Base, 4-(4-trans-hydroxy-cyclohexyl)amino-2-phenyl-7H-pyrrolo[2,3d]pyrimidine], for which the “solubility in gastrointestinal fluids (in words)” value in series [1] is “low solubility”. Besides, the “Solubility” value in series [2] was 5.9 ng/mL (≈ 0.0191 µM).
On to `CS(=O)(=O)O.OC1CCC(Nc2nc(-c3ccccc3)nc3[nH]ccc23)CC1` (stereo not drawn) [Polymorph α, 4-(4-trans-hydroxy-cyclohexyl)amino-2-phenyl-7H-pyrrolo[2,3d]pyrimidine mesylate], for which the “polymorphic stability (in words)” value in series [3] is recorded as “metastable with respect to form β”.
Same read-out and setting: with `CS(=O)(=O)O.OC1CCC(Nc2nc(-c3ccccc3)nc3[nH]ccc23)CC1` (stereo not drawn) [Polymorph β, 4-(4-trans-hydroxy-cyclohexyl)amino-2-phenyl-7H-pyrrolo[2,3d]pyrimidine mesylate] the entry was “stable form”.
For `CS(=O)(=O)O.OC1CCC(Nc2nc(-c3ccccc3)nc3[nH]ccc23)CC1` (stereo not drawn) [mesylate salt, 4-(4-trans-hydroxy-cyclohexyl)amino-2-phenyl-7H-pyrrolo[2,3d]-pyrimidine mesylate], the “stability at ambient conditions (in words)” value in series [4] is “very stable”.
